From US20140256638A1, “PEPTOID NEUTRALIZING AGENTS” (The Regents of the University of California, priority 2013, published 2014)

Tests used:
proteases = conditions: physiological conditions; cited from earlier work
[1] = Heparin Affinity Chromatography (HAC); format: binding; conditions: Table 4; heparin affinity column, gradient 0 to 1 M NaCl in pH 7.2, 50 mM sodium phosphate over 60 min, 0.65 mL/min
Procedure: The relative affinities of the peptoids in Table 2 for heparin were determined by heparin affinity chromatography (“HAC”). Peptoid solutions, typically 0.2 mM, were eluted by gradient elution; mobile phase A consisted of pH 7.2, 50 mM sodium phosphate buffer and mobile phase B consisted of the same buffer but with 1 M NaCl added. The flow rate was 0.65 mL/min and the gradient began with 100% mobile phase A and 0% mobile phase B, and ended at 60 min with 0% mobile phase A and 100% B although most of the peptoid runs were complete within 30 min or less.

[2] = Isothermal Titration Calorimetry (ITC) of peptoid-heparin binding; conditions: for TΔS: calculated from binding constant and ΔH; for ΔS: calculated from ΔG and ΔH; for ΔG: calculated from ΔG=−RTlnKb
Procedure: For Table 3, binding constants and other thermodynamic parameters were determined for the chiral 12-mer analogs by ITC. The S12mer data represents 3 trials, and the R12mer represents 2 trials. Values for the parameters Kb, AH and N are obtained by fitting the titration curves. AG is calculated from ΔG=−RTlnKb and ΔS is calculated from […].
Isothermal Titration Calorimetry (“ITC”) was used to determine directly ΔH, the binding constant and stoichiometry, and ΔS was then calculated from the binding constant and ΔH for the binding reaction between heparin and the peptoids produced in this study. In a typical ITC experiment, peptoid in buffer solution was placed in the sample cell and an equivalent quantity of the same buffer solution was placed in the reference cell. Heparin in buffer solution was placed in the titration syringe. Heparin titrant was added to the sample cell in 10 μL aliquots with 210 sec. between aliquots.
FIG. 11 presents the isotherm for the endothermic reaction. The resulting integrated titration curve is given in FIG. 12 for a reaction between 0.20 mM peptoid in the sample cell and 0.25 mM heparin in the titration syringe.

[3] = Coatest heparin in vitro assay; cited from earlier work
[4] = Table 4, ITC, heparin titrated into peptoid in buffer
[5] = Table 3, ITC, S12mer 3 trials, R12mer 2 trials

Substance	HAC r.t. [1] [min]	ΔH ([2]; Table 4, ITC) [kcal/mol]	Kd [2, 4] [µM]	TΔS ([2]; Table 4, ITC)	also measured
Ac-SRGKAKVKAKVKDQTK-NH2 [L-HIPAP]	–	–	–	–	stability to proteases (proteases): more susceptible to degradation by proteases
H-[N(Orn)-N(Bu)-N(Spe)]2-NH2 [s6mer]	9.61 ± 1.1	0.565 ± 0.064	44 ± 5	7748 ± 880 cal/mol	–
H-[N(Arg)-N(Pr)-N(Spe)]3-NH2 [s9merPrG]	20.3 ± 0.6	-1.634 ± 0.043	5.6 ± 1.8	4639 ± 36 cal/mol	–
H-[N(Arg)-N(Bu)-N(Spe)]3-NH2 [s9merG]	20.8 ± 0.8	-1.197 ± 0.071	4.76 ± 2.3	16.6 ± 1.7 cal/mol	–
H-[N(Orn)-N(Bu)-N(Rpe)]4-NH2 [r12mer]	18.5 ± 0.6	1.278 ± 0.379	7.6 ± 4.2	5664 ± 2.5 cal/mol	Kd [2, 5]: 7.57 µM; ΔH [2, 5]: 1.278 kcal/mol; ΔS ([2]; Table 3, ITC): 19.01 cal/mole ° C.; ΔG ([2]; Table 3, ITC): -6.956 kcal/mol
H-[N(Arg)-N(Bu)-N(Spe)]2-NH2 [s6merG]	13.5 ± 2.9	-2.862 ± 0.222	20.6 ± 0.8	2316 ± 32 cal/mol	–
H-[N(Orn)-N(Bz)-N(Spe)]3-NH2 [s9merBz]	29.3 ± 0.5	-0.545 ± 0.121	0.9 ± 0.4	2851 ± 1.4 cal/mol	–
H-[N(Cad)G-N(Bu)-N(Spe)]3-NH2 [s9merCadG]	20.1 ± 0.5	-0.2835 ± 0.027	5.5 ± 3.4	7500 ± 32 cal/mol	–
H-[N(Orn)-N(Orn)-N(Spe)]4-NH2 [s9merOrnOrn]	38.5 ± 5.0	-5.253 ± 0.105	0.14 ± 0.004	3992 ± 383 cal/mol	enthalpy of reaction (sign) ([2]; ITC with heparin): exothermic
H-[N(Arg)-N(Bu)-N(Spe)]-NH2 [s3merG]	3.8 ± 0.3	-0.6325 ± 0.0085	140 ± 11	2026.4 ± 159 cal/mol	–
Ac-SRGKAKVKAKVKDQTK-NH2 [D-HIPAP]	–	–	–	–	stability to proteases (proteases): more stable than L-HIPAP
H-[N(Orn)-N(Bu)-N(Spe)]3-NH2 [s9mer]	14.1 ± 1.2	0.814 ± 0.089	18.6 ± 3.2	7259 ± 45 cal/mol	–
H-[N(Cad)-N(Bu)-N(Spe)]3-NH2 [s9merCad]	16.3 ± 0.6	2.381 ± 0.029	11.7 ± 0.1	8989 ± 15 cal/mol	–
H-[N(Lys)-N(Bu)-N(Spe)]3-NH2 [s9merLys]	14.6 ± 0.2	3.305 ± 0.064	16.4 ± 11	10,000 ± 54 cal/mole	–
H-[N(Orn)-N(Et)-N(Spe)]3-NH2 [s9merEt]	16.5 ± 0.5	0.8223 ± 0.034	10.9 ± 0.7	5140 ± 37 cal/mol	–
H-[N(Orn)-N(All)-N(Spe)]3-NH2 [s9merAll]	20 ± 2.0	-0.931 ± 0.074	8.3 ± 3.2	4627 ± 41 cal/mol	–
Ac-SRGKAKVKAKVKDQTK-NH2 (not fully specified; printed as Ac-SRGKAKVKAKVKDQTK-NH2) [L-HIPAP]	–	–	–	–	neutralizing heparin activity [3]: equally effective
H-[N(Orn)-N(Bu)-N(Spe)]-NH2 [s3mer]	3.0 ± 0.6	0.3867 ± 0.237	164 ± 32	5057 ± 35 cal/mol	–
H-[N(Orn)-N(Pr)-N(Spe)]3-NH2 [s9merPr]	16.5 ± 0.7	3.555 ± 0.056	11.2 ± 0.7	1427 ± 2.6 cal/mol	–
H-[N(Orn)-N(Bu)-N(Spe)]4-NH2 [s12mer]	21.6 ± 0.6	1.733 ± 0.047	4.11 ± 0.6	9097 ± 30 cal/mol	relative binding affinity to heparin ([2]; ITC and HAC results, comparison in words): greater binding affinity; Kd [2, 5]: 4.11 µM; ΔH [2, 5]: 1.733 kcal/mol; ΔS ([2]; Table 3, ITC): 30.53 cal/mole ° C.; ΔG ([2]; Table 3, ITC): -6.309 kcal/mol
H-[N(Orn)-N(Me)-N(Spe)]3-NH2 [s9merMe]	18.1 ± 0.5	1.654 ± 0.011	8.3 ± 2	3161 ± 76 cal/mol	–
H-[N(Lys)G-N(Bu)-N(Spe)]3-N2 [s9merLysG]	20.6 ± 0.2	-0.6151 ± 0.135	5 ± 0.3	3948 ± 56 cal/mol	–
H-[N(Arg)-N(Et)-N(Spe)]3-NH2 [s9merEtG]	21.5 ± 0.5	-2.176 ± 0.082	4.3 ± 2.2	3159 ± 115 cal/mol	–
H-[N(Orn)-N(Bu)-N(Spe)]4-NH2 [s12merG]	29.2 ± 1.0	-0.167 ± 0.038	3.4 ± 0.4	7682 ± 43 cal/mol	–
